Results from PMC3756528 (Biochemistry, 2013).
Changes are numbered by the printed parent chain. Numbers in names are those of the source.

Columns and labels:
[1] = target: T1, RsTSPO (Cereibacter sphaeroides, UniProt Q9RFC8); test: Tryptophan fluorescence quenching binding assay, purified wild-type RsTSPO; parameters: species or system Rhodobacter sphaeroides; details: for quenching of the tryptophan fluorescence: compared to that of PpIX
T1 sequence (Q9RFC8 1-158): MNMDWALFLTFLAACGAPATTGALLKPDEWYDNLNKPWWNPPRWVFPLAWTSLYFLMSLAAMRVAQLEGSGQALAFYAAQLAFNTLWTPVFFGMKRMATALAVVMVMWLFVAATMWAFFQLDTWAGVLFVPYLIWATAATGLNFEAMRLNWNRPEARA

[2] = target: T2, RsTSPOW38C (Cereibacter sphaeroides, UniProt Q9RFC8, W38C); test: Tryptophan fluorescence quenching binding assay, purified RsTSPOW38C mutant; parameters: species or system Rhodobacter sphaeroides; details: for decrease in binding affinity by the W38C mutation: RsTSPOW38C versus wild-type RsTSPO
T2 sequence (Q9RFC8 1-158 W38C): T1 sequence (Q9RFC8 1-158) with W38C

[3] = target: T1, RsTSPO; details: cited from earlier work
[4] = target: T1, RsTSPO; test: Competition binding assay of PpIX, PK11195 and cholesterol with purified RsTSPO; parameters: species or system Rhodobacter sphaeroides
[5] = target: the molecule itself; test: SEC

Molecule: NCC(=O)CCC(=O)O [ALA, δ-aminolevulinic acid]
- quenching of the tryptophan fluorescence [1]: only a small quenching

Molecule: CC(C)CCC[C@@H](C)[C@H]1CC[C@H]2[C@@H]3CC=C4C[C@@H](O)CC[C@]4(C)[C@H]3CC[C@]12C [Cholesterol]
- Kd ([1]; Kapp to RsTSPO, estimated from half-maximal quenching): ~80 µM
- Kd ([2]; Kapp to RsTSPOW38C, estimated from half-maximal quenching): ~200 µM

Molecule: CCC(C)N(C)C(=O)c1cc2ccccc2c(-c2ccccc2Cl)n1 (stereo not drawn) [PK11195]
- decrease in binding affinity by the W38C mutation [2]: 3 fold
- binding of PK11195 to wild-type RsTSPO [3]: no binding affinity above background

Molecule: C=CC1=C(C)c2cc3[nH]c(cc4nc(cc5[nH]c(cc1n2)c(C)c5CCC(=O)O)C(CCC(=O)O)=C4C)c(C)c3C=C [PpIX, Protoporphyrin IX]
- maximal quenching of tryptophan fluorescence ([1]; Rs- and HsTSPO, 290 to 400 nm): ~100%
- decrease in binding affinity by the W38C mutation [2]: 6 fold
- increase in the Kd of PpIX ([4]; RsTSPO preincubated with 20 μM PK11195): ~3 fold
- increase in the Kd of PpIX ([4]; RsTSPO preincubated with 20 μM PK11195 and 50 μM cholesterol together): ~4 fold

Molecule: C[C@H](CCC(=O)O)[C@H]1CC[C@H]2[C@@H]3[C@@H](O)C[C@@H]4C[C@H](O)CC[C@]4(C)[C@H]3CC[C@]12C [ursodeoxycholate]
- affinity for RsTSPO [1]: no detectable affinity
- quenching of the tryptophan fluorescence [1]: only a small quenching

B1: RsTSPOW38C, W38C mutant of Translocator Protein 18 kDa from Rhodobacter sphaeroides (natural protein, UniProt Q9RFC8 1-158, looked up)
chain: T1 sequence (Q9RFC8 1-158) with W38C
- binding result [5]: binds
